One block for each compound: values may come before it.
Tests used:
[1] = system: cAMP stimulated acid secretion, mouse gastric glands; test: cAMP stimulated acid secretion (14C-aminopyrine accumulation) in isolated mouse gastric glands; format: cell-based; details: 100 μM, 60 min, 37° C.
Experimental: (§1) Acid secretion is measured indirectly by the accumulation of the weak base ^14 C-aminopyrine in the isolated murine gastric glands of mouse. The assay is performed in polypropylene eppendorf tubes containing 0.5 mL of resuspended mouse gastric glands. In addition, tubes contain the tested drug, acid secretagogues (e.g. histamine, di-butyryl cyclic AMP (cAMP), carbachol) and ^14 C-aminopyrine. Tubes are incubated for 60 min. at 37° C. and continuously rotated. The reaction is stopped by centrifugation of the gland suspension for five min. at 1500 g. Supernatant is aspirated leaving the pellet containing intact gastric glands. The pellet is washed extensively and digested overnight in 1 mL of Protosol (Amersham). After neutralisation with acetic acid and addition of scintillation fluid, the radioactivity is counted in a beta-counter (Beckman). The amount of radioactivity trapped in the pellet corresponds directly with the amount of acid being secreted. Each experimental point is done in triplicate. In each experiment, energy independent consumption was estimated with 0.1 mM of dinitrophenol and basal acid secretion in the absence of acid stimulants. These values were then subtracted from corresponding results in order to calculate basal or secretagogue stimulated acid secretion. […] Each experiment is repeated a number of times and all results are expressed as a % of the maximum stimulation.

[2] = system: gastric acid secretion, mouse gastric glands; test: In vitro inhibition of gastric acid secretion (14C-aminopyrine accumulation) in isolated mouse gastric glands, secretagogue not stated; format: cell-based; details: 1 h, 60 min, 37° C., read-out: ED50 (the source's name)
[3] = system: histamine stimulated acid secretion, mouse gastric glands; test: Histamine stimulated acid secretion (14C-aminopyrine accumulation) in isolated mouse gastric glands; format: cell-based; details: 100 μM, 60 min, 37° C.
Experimental: as §1

[4] = Reaction with phenethyl mercaptan in methanol (chemical model of proton pump thiol reactivity); details: for conversion to 2-mercaptobenzimidazole on reaction with phenethyl mercaptan / time after which reaction with phenethyl mercaptan is complete: methanol
Text: A useful in vitro model for obtaining an indication of the reactivity of thiadiazole compound towards the proton pump enzyme for deactivation thereof is provided by the reactivity of the thiadiazole compound towards phenethylmercaptan. The chemical mechanism of this process, as applied to the thiadiazolobenzimidazole compounds of the present invention, is diagrammatically illustrated on FIG. 3 of the accompanying drawings. The first stage of reaction forms a disulfide compound by cleavage of the S--N bond of the thiadiazole ring. This disulfide X cannot be isolated, since it reacts very rapidly with a second mercaptan group to give the disulfide of phenethylmercaptan and intermediate XI. In connection with the actual enzyme, the second step involving attack of another thiol group would not happen because of steric factors inhibiting the approach of two enzymes, or would lead to the formation of a disulfide bond in the event that another proximal thiol group is present. In both cases, this would lead to the inhibition of the enzyme. In some cases, intermediate XI further degrades to 2-mercaptobenzimidazole VIII or 1-cyano-2-mercaptobenzimidazole XII. A similar mechanism is followed by the imidazothiadiazoles of the present invention. Further description and discussion of this reaction and test method is included in the specific example section hereof.
To a solution of 23 mg of 3-(dimethylamino)-1,2,4-thiadiazolo[4,5-a]benzimidazole in 10 mL of methanol was added 360 μL of phenethyl mercaptan. After 1 min, the reaction is complete. The solvent was evaporated and the crude material was purified by chromatography to give 15 mg of N^1, N^1 -dimethyl-2-mercapto-1-benzimidazolylamidine: ^1 H NMR (DMSO-d6) δ 7.3-7.0 (m, 4H, 4×ArH), 3.35 (br s, 2H, NH, SH), 2.88 (s, 6H, 2×NCH3) ppm; IR (KBr) .nu. 3210, 1641, 1475, 1452, 1407, 1319 cm^-1; MS m/z 220 (M+), 150 (M^+ -Me2 NC=NH).
To a solution of 23 mg of 3-methoxy-1,2,4-thiadiazolo [4,5-a]benzimidazole in 10 mL of methanol was added 376 μL of phenethyl mercaptan. After 1 min, the reaction is complete. The methyl 2-mercapto-1-benzimidazolecarboximidate was identified as the major reaction product of the reaction: ^1 H NMR (DMSO-d6) δ 13.45 (br s, 1H, SH or NH), 9.8 (s, 1H, NH or SH), 7.7 (d, 1H, J=8 Hz, ArH), 7.35-7.2 (m, 3H, 3×ArH), 3.95 (s, 3H, OCH3) ppm; IR (KBr) .nu. 3437, 3095, 1679, 1450, 1440, 1376, 1193, 735 cm^-1; MS m/z=207 (M^+), 150 (M^+ -MeOC=NH)
To a suspension of 26 mg of 3-(oxophenylmethyl)-1,2,4-thiadiazolo[4,5-a]benzimidazole in 10 mL methanol was added 31 μL of phenethyl mercaptan.
To a suspension of 25 mg of 3-[hydroxy(4-methoxy-3,5-dimethyl-2-pyridyl)methyl]-1,2,4-thiadiazolo[4,5- a]benzimidazole in 10 mL methanol was added 250 μL of phenethyl mercaptan.
To a suspension of 31 mg of 3-[(4-methylphenyl) sulfonyl]-1,2,4-thiadiazolo[4,5-a]benzimidazole in 10 mL methanol was added 313 μL of phenethyl mercaptan.
Phenethyl mercaptan (120 μL, 0.90 mmol) was added to a suspension of 3-[(4-4-methoxy-3,5-dimethyl-2-pyridyl) oxomethyl]-1,2,4-thiadiazolo[4,5-a]benzimidazole (300 mg, 0.887 mmol) in methanol (150 ml) and 0.1 M hydrochloric acid (38 mL). After stirring the mixture at room temperature for 51 h, the mixture was neutralized to pH 6 with aqueous sodium bicarbonate and extracted with ethyl ether. The ether layer was dried on sodium sulfate and evaporated.

[5] = Reaction of 1,2,4-thiadiazolo[4,5-a]benzimidazole derivative with 2-mercaptoethanol, determination of t1/2 values; details: compound 5×10^-3 M, 2-mercaptoethanol 1.15×10^-2 M, methanol, R.T., HPLC; 5000 µM
Experimental: The column is eluted with 70% 50 mM ammonium acetate; 30% acetonitrile as the mobile phase.
Percentage reaction completion was calculated as follows:
At time 0, 100% starting material remained unreacted.
At time t, % of unreacted starting material={hsample /hint.std at
time t}/{hsample /hint.std at time O}*100%.

[6] = system: gastric acid secretion; test: Histamine-stimulated gastric acid secretion in anesthetized rats (dose-dependent study); format: in vivo, Sprague-Dawley rats; details: rat, oral gavage, at 3, 30, 300 μmol/kg doses; histamine 5 mg/kg i.v. infusion 2 h
Experimental: Fasted, adult (140-240 g), male, Sprague-Dawley rats were fasted for 24 h from food, but not water, and then treated by oral gavage with 1 to 1.5 mL total volume of 4 different doses (0.3, 3, 30, and 300 μmol/kg) of each compound on different days. Two hours later, rats were anesthetized with a combination of pentobartital and thiopental, the abdomen was opened and the pylorus was ligated, and tracheal, gastric, and peripheral venous canulas were placed. The stomachs were lavaged with 10 mL 0.9% saline every 10 min. for 30 min and the gastric effluent collected in receptacles. Acid output was determined in each gastric effluent sample by back-titration to pH 7.0 using 0.02M NaOH. Then, 5 mL of an 8% peptone meal (pH 5.5) was instilled into the stomachs, mixed, and drained after 10 min each time for 2 hours. Acid output was determined in each gastric effluent sample by back-titration to pH 7.0 using 0.02 M NaOH. After measuring basal acid output for at least 30 minutes, acid output was then measured during a 2 h intravenous infusion of histamine (5 mg/kg).

[7] = Acid stability in 6 molar hydrochloric acid; format: physicochemical; details: minimum methanol, room temperature
Experimental: To examine acid stability of the captioned compound, the compound was dissolved in a minimum volume of methanol and the resulting solution was added to a 6 molar solution of hydrochloric acid.

[8] = system: gastric acid secretion; test: Meal (8% peptone)-stimulated gastric acid secretion in rats; format: in vivo, Sprague-Dawley rats; details: rat, oral gavage, 300 μmol/kg
Experimental: Fasted, adult (140-240 g), male, Sprague-Dawley rats were fasted for 24 h from food, but not water, and then treated by oral gavage with 1 to 1.5 mL total volume of compound of Formula I (300 μmmol/Kg) on different days. Two hours later, rats were anesthetized with a combination of pentobartital and thiopental, the abdomen was opened and the pylorus was ligated, and tracheal, gastric, and peripheral venous canulas were placed. The stomachs were lavaged with 10 mL 0.9% saline every 10 min. for 30 min and the gastric effluent collected in receptacles to determine the basal acid secretion. Acid output was determined in each gastric effluent sample by back-titration to pH 7.0 using 0.02M NaOH. Then, 5 mL of an 8% peptone meal (pH 5.5) was instilled into the stomachs, mixed, and drained after 10 min each time for 2 hours. Acid output was determined in each gastric effluent containing the peptone meal by back-titration to pH 5.5 using 0.02 M NaOH.

[9] = system: gastric acid secretion; test: Suppression of gastric acid secretion in animal model; format: in vivo
[10] = Solubility in water; format: physicochemical

- IC50 [2]: 50 µM
Structure (SMILES): CN1CCN(c2nsc3nc4ccccc4n23)CC1.Cl.Cl [3-(4-methyl-1-piperazinyl)-1,2,4-thiadiazolo[4,5-a]benzimidazole dihydrochloride]
- inhibition of cAMP stimulated acid secretion [1]: completely inhibited
- inhibition of histamine stimulated acid secretion [3]: completely inhibited

Structure (SMILES): O=C(c1ccccc1)c1nsc2nc3ccccc3n12 [3-(oxophenylmethyl)-1,2,4-thiadiazolo[4,5-a]benzimidazole]
- conversion to 2-mercaptobenzimidazole on reaction with phenethyl mercaptan [4]: complete conversion

- recovered starting material after reaction with phenethyl mercaptan ([4]; methanol and 0.1 M hydrochloric acid, room temperature, 51 h): 14.6%
Structure (SMILES): COc1c(C)cnc(C(=O)c2nsc3nc4ccccc4n23)c1C [3-[(4-methoxy-3,5-dimethyl-2-pyridyl)oxomethyl]-1,2,4-thiadiazolo[4,5-a]benzimidazole]

Structure (SMILES): Cc1ccc(S(=O)(=O)c2nsc3nc4ccccc4n23)cc1 [3-[(4-methylphenyl)sulfonyl]-1,2,4-thiadiazolo[4,5-a]benzimidazole]
- conversion to 2-mercaptobenzimidazole on reaction with phenethyl mercaptan [4]: complete conversion

Structure (SMILES): COc1c(C)cnc(C(O)c2nsc3nc4ccccc4n23)c1C (stereo not shown) [3-[hydroxy(4-methoxy-3,5-dimethyl-2-pyridyl)methyl]-1,2,4-thiadiazolo[4,5-a]benzimidazole]
- conversion to 2-mercaptobenzimidazole on reaction with phenethyl mercaptan [4]: complete conversion

- t1/2 at pH = 7.0 [5]: 6.7 h
Structure (SMILES): CN1CCN(c2nsc3nc4ccccc4n23)CC1 [4-methylpiperazinyl, 3-(4-methyl-1-piperazinyl)-1,2,4-thiadiazolo-[4,5-a]benzimidazole]

- solubility in water [10]: limited solubility in water
Structure (SMILES): COc1ccc2c(c1)nc1snc(C(=O)c3ncc(C)c(OC)c3C)n12 [7-methoxy-3-[(4-methoxy-3,5-dimethyl-2-pyridyl)oxomethyl]-1,2,4-thiadiazolo[4,5-a]benzimidazole]
- inhibition of histamine-stimulated acid secretion [6]: significant (p<0.05) inhibition
- acid stability [7]: very stable in acid and was totally recovered after stirring for 48 hours at room temperature
- inhibition of meal-stimulated acid secretion [8]: significant (p<0.05) inhibition
- acid output after 1 h ([8]; 8% peptone stimulated, after 1 h): 20 μmmol/30 min
- suppression of gastric acid secretion [9]: active in the suppression of gastric acid secretion

- t1/2 at pH = 7.0 [5]: 134 h
Structure (SMILES): c1ccc(-c2nsc3nc4ccccc4n23)nc1 [Example 2-pyridyl, 3-(2-pyridyl)-1,2,4-thiadiazolo[4,5-a]benzimidazole]

- t1/2 at pH = 7.0 [5]: 1.5 h
Structure (SMILES): CN(C)c1nsc2nc3ccccc3n12 [Me2 N, 3-(dimethylamino)-1,2,4-thiadiazolo[4,5-a]benzimidazole]
- time after which reaction with phenethyl mercaptan is complete [4]: ≤ 1 min

- t1/2 at pH = 7.0 [5]: 0.31 h
Structure (SMILES): COc1nsc2nc3ccccc3n12 [MeO, 3-methoxy-1,2,4-thiadiazolo[4,5-a]benzimidazole]
- time after which reaction with phenethyl mercaptan is complete [4]: ≤ 1 min

- acid stability [7]: complete decomposition in a few minutes
Structure (SMILES): COc1ccc2[nH]c([S+]([O-])Cc3ncc(C)c(OC)c3C)nc2c1 (stereo not shown) [Omeprazole, reference compound]

- t1/2 at pH = 7.0 [5]: 110 h
Structure (SMILES): CC(=O)c1nsc2nc3ccccc3n12 [acetyl, 3-(1-oxoethyl)-1,2,4-thiadiazolo[4,5-a]benzimidazole]

Structure (SMILES): Cc1nsc2nc3ccccc3n12 [methyl, 3-methyl-1,2,4-thiadiazolo[4,5-a]benzimidazole]
- t1/2 at pH = 7.0 [5]: 59 h

- t1/2 at pH = 7.0 [5]: 2.4 h
Structure (SMILES): c1ccc2c(c1)nc1snc(N3CCOCC3)n12 [morpholino, 3-(4-morpholinyl)-1,2,4-thiadiazolo[4,5-a]benzimidazole]

- t1/2 at pH = 7.0 [5]: 98 h
Structure (SMILES): c1ccc2c(c1)nc1snc(CN3CCOCC3)n12 [morpholinomethyl, 3-(morpholinomethyl)-1,2,4-thiadiazolo[4,5-a]benzimidazole]

Structure (SMILES): c1ccc(-c2nsc3nc4ccccc4n23)cc1 [phenyl]
- t1/2 at pH = 7.0 [5]: 45 h

From patent US6093738A, “Proton pump inhibitors” (priority 1997, dated 2000)
